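48-hour exposure; five concentrations; linearly interpolated endpoints. The concentration for full growth arrest is given as TGI.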
Legend:
Assay in all cases: NCI anticancer screen, dose series, 48 h
HCC-2998 colon = system: HCC-2998 colon
SNB-19 CNS = system: SNB-19 CNS
HCT-15 colon = system: HCT-15 colon
LOX IMVI melanoma = system: LOX IMVI melanoma
OVCAR-4 ovarian = system: OVCAR-4 ovarian
HOP-92 NSCLC = system: HOP-92 NSCLC
MCF7 breast = system: MCF7 breast
RPMI-8226 leukemia = system: RPMI-8226 leukemia
UACC-62 melanoma = system: UACC-62 melanoma
A498 renal = system: A498 renal
SF-539 CNS = system: SF-539 CNS
HCT-116 colon = system: HCT-116 colon
SK-MEL-2 melanoma = system: SK-MEL-2 melanoma
EKVX NSCLC = system: EKVX NSCLC
OVCAR-8 ovarian = system: OVCAR-8 ovarian
SF-295 CNS = system: SF-295 CNS
COLO 205 colon = system: COLO 205 colon
CAKI-1 renal = system: CAKI-1 renal
ACHN renal = system: ACHN renal
DU-145 prostate = system: DU-145 prostate

Compound | TGI (HCC-2998 colon) [µM] | TGI (SNB-19 CNS) [µM] | TGI (HCT-15 colon) [µM] | TGI (LOX IMVI melanoma) [µM] | TGI (OVCAR-4 ovarian) [µM] | TGI (HOP-92 NSCLC) [µM] | TGI (MCF7 breast) [µM] | TGI (RPMI-8226 leukemia) [µM] | TGI (UACC-62 melanoma) [µM] | TGI (A498 renal) [µM] | TGI (SF-539 CNS) [µM] | TGI (HCT-116 colon) [µM] | TGI (SK-MEL-2 melanoma) [µM] | TGI (EKVX NSCLC) [µM] | TGI (OVCAR-8 ovarian) [µM] | TGI (SF-295 CNS) [µM] | TGI (COLO 205 colon) [µM] | TGI (CAKI-1 renal) [µM] | TGI (ACHN renal) [µM] | TGI (DU-145 prostate) [µM]
CCCSCC(P(=O)(O)O)P(=O)(O)O | > 100 | > 100 | > 100 | > 100 | > 100 | > 100 | > 100 | > 100 | > 100 | > 100 | > 100 | > 100 | > 100 | > 100 | > 100 | > 100 | > 100 | > 100 |  | 
CS(=O)(=O)OCC(CCl)(CCl)CCl | > 100 | > 100 | > 100 | > 100 | > 100 | > 100 | > 100 |  |  | > 100 |  | > 100 |  |  | > 100 | > 100 | > 100 |  | > 100 | > 100
CCN(CC)CCN(C(=Nc1ccccc1)N1CCOCC1)c1ccccc1 | > 100 | > 100 | > 100 | > 100 | > 100 |  | > 100 | > 100 | > 100 |  | > 100 | 89.8 | > 100 | > 100 | > 100 | > 100 | > 100 | > 100 |  | > 100
CN(C)c1ccc(S(=O)Nc2ccccc2)cc1 (centres undefined) | > 100 | > 100 | > 100 | > 100 | > 100 |  | > 100 | > 100 | 81.6 |  | > 100 | > 100 | 89.1 | > 100 | > 100 | > 100 | 63.1 |  | > 100 | > 100
CCOC(=O)Cn1c(=O)c2nc(SC)sc2n(-c2ccccc2)c1=O | > 100 | > 100 | > 100 |  |  | > 100 | > 100 | > 100 | > 100 | > 100 |  | > 100 | > 100 | > 100 | > 100 |  | > 100 |  | > 100 | 
O=C(O)/C=C(/C(=O)O)C12CCN3CC4=CCOC5CC(=O)NC1C5C4CC32 (centres undefined) |  | > 100 | > 100 | > 100 | > 100 | > 100 | > 100 | > 100 | > 100 | > 100 | > 100 | > 100 | > 100 | > 100 | > 100 | > 100 | > 100 | > 100 | > 100 | > 100
CCOC(=O)c1ccc(NCC#CCN2CCOCC2)cc1 |  | > 100 | > 100 | > 100 | > 100 | > 100 | > 100 | > 100 | > 100 | > 100 | > 100 | > 100 | > 100 | > 100 |  |  | > 100 |  | > 100 | > 100
O=C(O)CCC(=O)OC1N=C(c2ccccc2Cl)c2cc([N+](=O)[O-])ccc2NC1=O (centres undefined) | > 100 | > 100 | > 100 | > 100 | > 100 | > 100 | > 100 |  | > 100 | > 100 |  | 65.6 | > 100 | > 100 | > 100 | > 100 |  | > 100 | > 100 | > 100
COc1cccc(CCCNC(=O)Cc2cc(OC)c(OC)cc2CO)c1 | > 100 | > 100 | > 100 | > 100 | > 100 | > 100 |  |  | > 100 | > 100 |  | > 100 | > 100 | > 100 | > 100 |  | > 100 | > 100 | > 100 | > 100
CN(C)C1(N(C)C)Oc2c(c(=O)n(C)c(=O)n2C)C(c2ccc(Br)cc2)C1(F)F (centres undefined) | > 100 | > 100 | > 100 | > 100 | > 100 | > 100 | > 100 | > 100 | > 100 | > 100 |  | > 100 | > 100 | > 100 |  | > 100 | > 100 | > 100 | > 100 | > 100
CC1CCC(C(=O)O)(C(Br)C(=O)O)CC1 (centres undefined) |  | > 100 | > 100 | > 100 | > 100 | > 100 |  | > 100 | > 100 |  |  | > 100 | > 100 | > 100 | > 100 | > 100 |  | > 100 | > 100 | > 100
C=CCSc1nnc2cc(CN3CCCC3)c(-c3ccc(Cl)cc3)nn12 |  | 71.7 | 45.1 | 48.1 | 48 | 34.3 | 33.7 | > 100 | 27.7 | 35.9 | 36.2 | 28.5 | 34.5 | 43.8 | 57.1 | 53.7 | 34.5 | 77.5 | 38.3 | 43.7
Cc1ccc(C(=C2Sc3ccccc3S2)C(=C2Sc3ccccc3S2)c2ccc(C)s2)s1 | > 100 | > 100 | > 100 |  | > 100 |  | > 100 | > 100 | > 100 | > 100 |  | > 100 | > 100 | > 100 | > 100 | > 100 | > 100 | > 100 | > 100 | > 100
Oc1ccc([I+]c2ccccc2)cc1O | 64.2 | > 100 | > 100 | > 100 | > 100 | 28.9 |  | 61.4 |  | > 100 | 91.2 | > 100 |  | > 100 | > 100 | > 100 | > 100 | > 100 | > 100 | > 100
